This is an account of results in a melting point compilation (Tetko et al.; mined from patent text by program, amines drawn as free bases though some values may be those of a salt).

The term melting point denotes the temperature, or range, at which the solid turns liquid. In the case of `O=C1NC(=O)C(Cc2ccc3cc(OCc4ccccc4)ccc3n2)S1` (configuration not stated), the melting point was in the range of 144 to 146 °C.
Turning to `Cc1ccccc1-c1c(CC(=O)O)c(=O)oc2ccc(Cl)cc12`, the melting point fell in the range of 180 to 183 °C.
Then `CNC(=O)NCCCCC1CCSS1` (configuration not stated), with 89 to 90 °C; and `CNC1=NS(=O)(=O)N=C1NCCSCc1csc(CN(C)C)n1`, with 144 to 148 °C.
Consider `COc1cc(CCl)c(CCl)cc1OCCCl`, for which the melting point was 117 to 118 °C.
Next, `FC(Br)C=Cc1ncn(C(c2ccccc2)(c2ccccc2)c2ccccc2)n1` (configuration not stated): 145 to 146 °C; `Cc1cccc(Nc2cc(Cl)nc(Cl)n2)c1C`: 204 to 206 °C; `N#Cc1ccc(-c2csc(-n3c(=O)oc4ccccc43)n2)cc1`: 244 to 245 °C.
Next, `CCCCNC(=O)[C@H](C)C[C@H](O)[C@H](CC1CCCCC1)NC(=O)[C@H](Cc1cscn1)NC(=O)[C@@H](CC(=O)N1CCCCC1)Cc1ccc(OC)cc1`: 120 to 122 °C.
Next, `Fc1cccc(COc2ccc(Nc3ncnc4cc(C#Cc5nccs5)sc34)cc2Cl)c1`: 235 °C.
On to `COc1ccccc1C1CC(=O)CC(c2ccccc2OC)N1C` (configuration not stated), for which the melting point was 146 to 148 °C.
Then `Nc1coc2ccc(Cl)cc2c1=O`, with 184 to 186 °C; and `CCC(=O)c1cc(C#N)c(=O)[nH]c1C=CN(C)C`, with 278 to 280 °C.
Next, `O=C(C=Cc1ccco1)CCCCCl`: 50 to 52 °C; `CCCCNC(=O)NS(=O)(=O)Cc1c(C(=O)OC)cccc1S(=O)(=O)N(C)C`: 118 to 134 °C.
On to `Cc1cc(CC(=O)NCc2cccc3c2C(=O)N(C2CCC(=O)NC2=O)C3=O)on1` (configuration not stated), for which the melting point lay in the range of 179 to 181 °C.
Next, `COC(=O)COc1ccc([N+](=O)[O-])c(F)c1`: 93 to 94 °C; `O=C(Nc1ccccc1)C1CCc2c(cnc3[nH]ncc23)C1` (configuration not stated): greater than 300 °C; `O=C(NCCCBr)c1cnn(-c2nc(-c3cccc(C(F)(F)F)c3)cs2)c1C(F)(F)F`: 187 to 190 °C.
Then `COCc1c(C=NO)ncc2[nH]c3cccc(Cc4ccccc4Cl)c3c12`, with 209 to 212 °C; and `COC(=O)C1=C(C)NC(C)=C(S(C)(=O)=O)C1c1ccccc1C(F)(F)F` (configuration not stated), with 160 to 163 °C.
Next, `O=C(Cc1ccccc1O)N1CCOCC1`: 122 °C; `CC(=O)Nc1cc(C(=O)OCCN2CCCCC2)c2oc(-c3ccccc3)cc2c1`: 172 to 174 °C; `NC(=O)c1ccc(Cn2ccc(NC(=S)NCC(F)(F)F)n2)cc1`: 205 to 206 °C.
`N#CCCn1nc(O)nc1Cl`: the melting point is 149 to 150 °C.
Then `O=C(NCc1ccccn1)Nc1cc(N2CC(COCc3ccccc3)OC2=O)ccn1` (configuration not stated), with 134 to 135 °C; and `COc1nc(Cl)cnc1N(C(=O)OCC(C)C)S(=O)(=O)c1ccccc1-c1ccc(OC2CCCCO2)cc1` (configuration not stated), with 142 to 143 °C.
Compound `COC(=O)C1=C(C)NC(C)=C(C(=O)O)C1c1cccc([N+](=O)[O-])c1` (configuration not stated) gave a melting point of 196 to 197 °C.
For `CC(=O)OC1CCC2C3CCC4=CC(=O)CCC4(CO)C3CCC12C` (configuration not stated), the melting point is 166 to 168 °C.
Take `CC(C)(C)C(=O)Nc1ccc(Cl)cc1F`: the melting point lay in the range of 70.5 to 71 °C.
In turn, `CNc1nc(-c2cccc(NC(=O)c3ccc(N4CCCC4)nc3)c2)c2cc(OC)c(OC)cc2n1` had a melting point of 239 to 241 °C.
As to `O=c1ccn(CCO)c(C(O)c2cccc(F)c2)c1OCc1ccccc1` (configuration not stated), the melting point fell in the range of 194 to 196 °C.
In the case of `CC(=O)OC1CSC(Oc2ccc(F)nc2)C(OC(C)=O)C1OC(C)=O` (configuration not stated), the melting point came out at 123 °C.
As for `CCCCc1ccc(-c2ccc(OCC(C)CC)nn2)cc1` (configuration not stated), the melting point came to 94 °C.
`O=C(O)CCCCO/N=C(/c1cccnc1)c1cccc(C(F)(F)F)c1` returned a melting point of 70.3 °C.
Then `CCc1nc(O)c2c(n1)c(C)nn2C`, with 220 to 222 °C; and `COc1cc(OC)nc(Oc2cccc(Cl)c2C(=O)Oc2ccc([N+](=O)[O-])cc2)n1`, with 130 to 132 °C; and `CCC(C)c1ccc2ccccc2c1C(=O)O` (configuration not stated), with 168 to 170 °C.
Then `Cc1c(C)c2c(c(C)c1O)SCO2`, with 131 to 132 °C.
Take `CCOC(=O)Cn1c2cccccc-2c(C(=O)OCC)c1=O`: the melting point was in the range of 115 to 120 °C.
Turning to `CC(O)c1ccc(Cc2c(Cl)cc(N3N=CCNC3=O)cc2Cl)cc1` (configuration not stated), the melting point fell in the range of 119 to 120 °C.
Next, `CC(C(=O)O)c1cccc2c(-c3ccc(Cl)cc3)nccc12` (configuration not stated): 200 to 202 °C; `c1ccc(N2CCN(CCC3CCC(Nc4cccnc4)CC3)CC2)cc1` (configuration not stated): 159 to 160 °C; `CCCNC(=O)C(C)(C)N=NC(C)(C)C(=O)NCCC`: 65 °C.
With `CSc1c(O)cncc1Oc1ccccc1`, the melting point was 131 to 133 °C.
Next, `CCOc1ccc(CCCc2ccncc2)cc1`: 79 to 81 °C; `c1ccc2c(c1)cc(-c1nnn[nH]1)c1nnnn12`: 280 to 282 °C; `Nc1cc(=O)n(Cc2ccccc2)c(=O)n1-c1cccc([N+](=O)[O-])c1`: 256 to 260 °C.
In turn, `COCC#Cc1cc(F)c2ncc(C(=O)NCc3ccc(Cl)cc3)c(O)c2c1` yielded a melting point of 222 to 224 °C.
As for `Sc1nc2ccccc2c2nc(-c3ccoc3)nn12`, the melting point is 290 to 292 °C.
In turn, `COC[C@H]1CN(c2noc3cc(OS(=O)(=O)C(F)(F)F)ccc23)C(=O)O1` returned a melting point of 94 °C.
Then `O=C(NCCCC(CCCNC(=O)c1ccccc1)OC(F)(F)F)c1ccccc1`, with 115 to 118 °C; and `NNc1cc2ccccc2[nH]1`, with 165 to 167 °C; and `Cc1ccc(C(=O)NCCCSc2ccncc2)cc1`, with 110 to 111 °C.
In turn, `C#CCOc1c(OC)cccc1-c1nc2ncccc2[nH]1` gave a melting point of 238 °C.
In turn, `C=CC#CCn1c(-c2ccccc2)nc(C(F)(F)F)c(CC)c1=O` gave a melting point of 104 to 106 °C.
Then `Cc1cccc(S(=O)(=O)NC(=O)NCCCCCCN)c1`, with 187 °C.
Regarding `Nc1cccc(C(=O)Nn2cnnn2)c1`, the melting point was found to be 281 °C.
`N#CCCC(C#N)CSc1ccc(Cl)c(Cl)c1` (configuration not stated) displayed a melting point of 53 to 55 °C.
Then `COc1ccc(OCCO)cc1`, with 69 to 71 °C; and `Nc1c(-c2cc(Cl)ccc2O)c2ccc(C(F)(F)F)cc2[nH]c1=O`, with 225 to 227 °C; and `COc1nc(C)nc(NC(=O)NS(=O)(=O)OCC(Cl)(Cl)Cl)n1`, with 128 °C.
In the case of `CCOC(=O)C1=C(C)Nc2nc(N3CCCCC3)nc(N3CCCCC3)c2C1c1cccc([N+](=O)[O-])c1` (configuration not stated), the melting point was found to be 169 °C.
Next, `N=S1C(n2c(S)nnc2-c2ccc(O)cc2)=CC=C1[N+](=O)[O-]` (configuration not stated): 275 to 276 °C.
`CCOCCCOc1ccc(-c2ccc3c(c2)C=C(C(=O)OC)CCN3C=O)cc1` displayed a melting point of 112 to 113 °C.
`COc1ccc(C(=O)Nc2ccc(C(C)(C)CN3CCOC3=O)cc2)cc1OC` came in with a melting point of 190 to 191 °C.
On to `CCCCc1nc2cc(C(=O)O)ccc2n1Cc1ccc(-c2ccccc2-c2nnn[nH]2)cc1`, for which the melting point lay in the range of 180 to 182 °C.
In turn, `C#CCC(CC#C)(C(=O)NO)S(=O)(=O)c1ccc(OC)cc1` yielded a melting point of 156 °C.
Consider `O=C1N(Cc2ccc(C(F)(F)F)o2)c2c(C(F)(F)F)cccc2C12COc1cc3c(cc12)OCO3` (configuration not stated), for which the melting point lay in the range of 95 to 98 °C.
Next, `c1ccc(-c2cc3c(ccc4ccccc43)o2)cc1`: 140 to 144 °C.
`OC1CCc2c1cccc2-n1cccc1` (configuration not stated) gave a melting point of 80 to 81 °C.
Then `COc1cccc2c(CCCNC3COc4c(F)ccc(C(N)=O)c4C3)coc12` (configuration not stated), with 163 to 166 °C; and `Cn1c(Cl)c(C(=O)C(=O)N2CCCC2)c2ccc(Cl)cc21`, with 174 to 175 °C; and `COC(=O)CCCCCOc1ccc(NC(=O)OCCO)cc1`, with 69.5 to 71.5 °C.
Next, `CCOc1cc(C(C)=O)ccc1OCCCN1CCC(c2noc3cc(F)ccc23)CC1`: 112 to 114 °C.
As for `O=c1oc2ccc(Cl)cc2c(Cl)c1Cl`, the melting point was 133 to 135 °C.
Then `COc1cc(Nc2nccc(-c3ccc(N4CCN(C)[C@@H](C)C4)nc3)n2)cc(OC)c1OC`, with 92 to 93 °C; and `O=C(CN1CCC(Cc2ccc(F)cc2)CC1)Nc1ccc([N+](=O)[O-])cc1`, with 120 to 123 °C; and `COc1ccc(Cc2nc3cccc(NCc4ncc[nH]4)c3o2)cc1OC1CCCC1`, with 179 to 180 °C.
On to `CC(NOCc1ccccc1)c1cc2ccccc2s1` (configuration not stated), for which the melting point is 55 to 56 °C.
Then `Cc1cc([N+](=O)[O-])cnc1CCC#N`, with 73 to 74 °C.
The compound `N#Cc1ccc(C=CCc2ccc(C#N)cc2)cc1` showed a melting point of 98 to 105 °C.
Then `CC(C)(C)OC(=O)C(N)C1NC(C(=O)OCc2ccccc2)C2(CCN(Cc3ccccc3)CC2)S1` (configuration not stated), with 140 to 141 °C; and `O=C(c1ccc(C2CCCCC2)cc1)c1cccnc1`, with 52 to 54 °C; and `CC1(c2cccc(NS(C)(=O)=O)c2)C2CN(C(=O)CCc3ccsc3)CC21` (configuration not stated), with 180 °C.
On to `O=C(c1ccc(Cl)cn1)c1ccc(Cl)cn1`, for which the melting point lay within 164 to 167 °C.
As for `O=C(NC(=O)c1c(F)cccc1F)Nc1ccc(Oc2ccc(Cl)cc2)c(Cl)c1`, the melting point lay in the range of 194 to 196 °C.
Next, `COc1ccc(C2COc3c(ccc(O)c3O)C2)cc1OC` (configuration not stated): 176 °C; `CC(C)c1ccc(N(Cc2ccc(O)cc2)C(=O)C2CCCc3c(O)cccc32)cc1` (configuration not stated): 241 to 243 °C.
Next, `C[C@H]1CCCC(C)(C)[C@@H]1[C@H](O)c1ccc(F)c(F)c1`: 43.3 to 45.8 °C; `CC(C)(C)c1cc(Oc2c(Cl)cc(C(F)(F)F)cc2Cl)n[nH]1`: 170 to 172 °C; `CCN(C(=O)Cn1c(=O)n(C)c2nc(-c3ccccc3)nc(OC)c21)c1ccccc1`: 173 to 175 °C.
